This is an account of results in article PMC4778748 (Bioorganic & medicinal chemistry, 2016).

The conditions of data set [1]: cited from earlier work.
In data set [2] the test system is dog ortholog of 12/15-LOX. Conditions: cited from earlier work.
The subject of data set [3] is rat ortholog of 12/15-LOX. Conditions: cited from earlier work.
Data set [4] concerns the target T1, h12/15-LOX (Homo sapiens, UniProt P16050).
T1 sequence (P16050 1-662): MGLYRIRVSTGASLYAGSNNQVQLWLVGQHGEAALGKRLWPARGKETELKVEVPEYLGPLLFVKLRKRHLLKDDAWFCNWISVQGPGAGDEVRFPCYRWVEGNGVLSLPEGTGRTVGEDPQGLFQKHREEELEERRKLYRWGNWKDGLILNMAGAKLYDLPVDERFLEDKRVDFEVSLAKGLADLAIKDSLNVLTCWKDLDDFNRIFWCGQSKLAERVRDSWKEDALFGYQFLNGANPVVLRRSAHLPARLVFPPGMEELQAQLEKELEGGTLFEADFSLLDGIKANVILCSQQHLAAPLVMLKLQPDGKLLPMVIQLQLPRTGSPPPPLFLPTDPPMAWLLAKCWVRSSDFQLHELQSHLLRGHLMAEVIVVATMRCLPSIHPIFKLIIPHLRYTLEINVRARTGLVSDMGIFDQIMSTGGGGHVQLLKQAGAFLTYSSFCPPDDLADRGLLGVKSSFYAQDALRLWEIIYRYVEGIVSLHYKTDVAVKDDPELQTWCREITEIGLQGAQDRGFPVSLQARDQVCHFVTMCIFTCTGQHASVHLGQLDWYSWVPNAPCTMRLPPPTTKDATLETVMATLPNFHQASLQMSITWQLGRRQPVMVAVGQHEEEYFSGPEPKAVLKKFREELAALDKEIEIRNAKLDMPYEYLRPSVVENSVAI
In words: Lipoxygenase UV-Vis-based IC50 assay. Type of data set: biochemical. The following applies: for loss of potency against h12/15-LOX relative to parent: SAR comparison of IC50 values.

The nature of data set [5]: Solubility limit of inhibitor in enzyme assay. In kind it is physicochemical. The following applies: concentrations above 35 µM.
The target in data set [6] is T1, h12/15-LOX. In words: Steady-state inhibition kinetics.
Data set [7] has as its target T1, h12/15-LOX. In words: Pseudoperoxidase assay. Conditions: 20 µM inhibitor, 20 µM 13-HpODE, 60 nM enzyme.
The test system of data set [8] is HT-22 cells. In words: HT-22 cellular assay. In kind it is cell-based. The following applies: Mus musculus, HT-22, read-out: approximate cellular EC50 (ex vivo IC50) in HT-22.
For data set [9] the following is noted: cited from earlier work. This is another data set of the same source.
The conditions of data set [10]: cited from earlier work. The source holds these as a separate data set.
The subject of data set [11] is rabbit reticulocyte 12/15-LOX. Conditions: cited from earlier work.
In data set [12] the target is T2, h5-LOX (Homo sapiens, UniProt P09917).
T2 sequence (P09917 1-674): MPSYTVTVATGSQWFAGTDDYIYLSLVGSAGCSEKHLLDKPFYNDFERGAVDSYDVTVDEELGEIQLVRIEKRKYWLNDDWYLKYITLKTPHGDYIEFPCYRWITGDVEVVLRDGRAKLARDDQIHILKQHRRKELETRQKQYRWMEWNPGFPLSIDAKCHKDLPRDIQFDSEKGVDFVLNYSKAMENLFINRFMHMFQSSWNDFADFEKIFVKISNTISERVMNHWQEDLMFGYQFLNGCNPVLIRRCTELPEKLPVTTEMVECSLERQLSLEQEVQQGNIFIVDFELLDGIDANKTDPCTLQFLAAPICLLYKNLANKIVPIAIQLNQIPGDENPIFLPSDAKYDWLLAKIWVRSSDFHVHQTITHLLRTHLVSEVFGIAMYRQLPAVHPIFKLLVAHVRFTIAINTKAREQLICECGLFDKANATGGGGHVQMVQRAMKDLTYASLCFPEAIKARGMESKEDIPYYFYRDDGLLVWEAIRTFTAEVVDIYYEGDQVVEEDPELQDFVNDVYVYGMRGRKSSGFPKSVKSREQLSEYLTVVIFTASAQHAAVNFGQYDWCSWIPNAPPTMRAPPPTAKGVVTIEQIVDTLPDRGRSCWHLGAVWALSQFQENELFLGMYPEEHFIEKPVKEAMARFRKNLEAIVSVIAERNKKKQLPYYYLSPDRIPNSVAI
In words: Selectivity assay. Type of data set: biochemical. The following applies: read-out: inhibition of h5-LOX (positive control).

Regarding `O=C(Nc1ccc(F)cc1Cl)c1c[nH]nn1` [BLX-2477, N-(2-chloro-4-fluorophenyl)triazole-4-carboxamide], in data set [1], the “off-target effects in mini-pigs” value was “adverse off-target effects”. For the same compound, the “potency against dog ortholog” value in data set [2] is reported as “did not exhibit potency”. In addition, the “potency against rat ortholog” value in data set [3] was “did not exhibit potency”.
As for `Cc1ccc(O)c(-c2cc(C(=O)NCc3ccccc3)[nH]n2)c1` [Compound 3], in data set [4], the “loss of potency against h12/15-LOX relative to parent” value is on record as “over 10 fold”.
Still for that read-out and setting: as for `COc1ccc(C(=O)c2c[nH]nc2-c2cc(C)ccc2O)cc1` [Compound 4], the entry is “over 10 fold”; as for `Cc1ccc(-c2cc(-c3ccc(C)cc3O)[nH]n2)cc1` [Compound 18], “greater than 15 fold”.
As usually defined, the inhibition is the change of the read-out against control, counted positive when it falls. One may read the Ki as the dissociation constant of the complex between target and ligand, obtained from inhibition or displacement. A high value points to weaker binding. For orientation: EC50 means the concentration that produces a half-maximal response. For `Cc1ccc(O)c(-c2cc(-c3ccccc3C)[nH]n2)c1` [Compound 99089], in [5], the “solubility in assay buffer” value was “solubility problems”. In data set [4] (read-out: %Inhibition (20 µM), 20 µM inhibitor, 10 µM AA, 0.01% Triton X-100), the inhibition at 20 µM was > 90%. The Ki in [6] worked out at 6 ± 3.3 µM. In addition, the mode of inhibition result in [6] (steady-state kinetics) is recorded as “mixed type inhibitor”. For the same compound, the “degradation of 13-HpODE (redox activity)” value in [7] is “not observed”. The EC50 in data set [8] was ~10 µM.
In the case of `O=C(OCC#CCSc1nnc(-c2cccc3ccccc23)o1)c1cccs1` [ML094, 4-(5-(Naphthalen-1-yl)-1,3,4-oxadiazol-2-ylthio)but-2-ynylthiophene-2-carboxylate], the “activity in cell-based assays” value in data set [9] was “lacks activity”.
As for `CNc1oc(-c2cccc3ccccc23)nc1C#N` [ML351, 5-(methylamino)-2-(naphthalene-1-yl)oxazole-4-carbonitrile], the “in vivo activity in mice” value in data set [10] is recorded as “exhibits in vivo activity”.
In general, IC50 refers to the concentration needed to halve the response being measured. As to `c1ccc2c(c1)SCc1c-2[nH]c2ccccc12` [PD-146176], the IC50 in data set [11] is 0.81 µM.
As for `CC(c1cc2ccccc2s1)N(O)C(N)=O` (stereo not shown) [Zileuton], the inhibition at 20 µM in data set [12] was 97%.
